The record followed here is patent publication US20110160196A1, “FACTOR XA INHIBITORS” (Millennium Pharmaceuticals, Inc., priority 2007, published 2011).

The target of the experiment is T1, human plasma protein factor Xa (Homo sapiens, UniProt P00742).
T1 construct: The human plasma protein factor Xa was purchased; purchased Haematologic Technologies (Essex Junction, Vt.); host or cells: human plasma
Put plainly: Factor Xa IC50 determination (cleavage of paranitroanilide substrate S-2765). Format: biochemical. The note with it: factor Xa 1 nM, S-2765 100 μM, Tris buffered saline pH 7.4, read at 405 nm. From the text:
This example illustrates methods for evaluating the compounds of the invention, along with results obtained for such assays. The in vitro and in vivo human Factor Xa activities of the inventive compounds can be determined by various procedures known in the art, such as a test for their ability to inhibit the activity of human plasma Factor Xa. […] The IC50 value is the concentration (in nM) of the compound required to provide 50% inhibition of human Factor Xa proteolytic activity.
An in vitro assay for detecting and measuring inhibition activity against Factor Xa is as follows:
The substrate S-2765 (Z-D-Arg-Gly-Arg-pNA.HCl) was obtained from Diapharma (West Chester, Ohio).
The human plasma protein factor Xa was purchased from Haematologic Technologies (Essex Junction, Vt.).
All assays, which are performed in 96-well microtiter plates, measure proteolytic activity of the enzyme (factor Xa) by following cleavage of a paranitroanilide peptide substrate. The assay buffer used for proteolytic assays was Tris buffered saline (20 mM Tris, 150 mM NaCl, 5 mM CaCl2, 0.1% Bovine serum albumin (BSA), 5% Dimethly Sulfoxide (DMSO) pH 7.4). In a 96-well microtiter plate, inhibitor was serially diluted to give a range of final concentrations from 0.01 nM to 10 μM. Duplicate sets of wells were assayed and control wells without inhibitor were included. Enzyme was added to each well, (factor Xa concentration=1 nM), the plate was shaken for 5 seconds and then incubated for 5 minutes at room temperature. S-2765 was added (100 μM final) and the plate was shaken for 5 seconds (final volume in each well was 200 μl). The degree of substrate hydrolysis was measured at 405 nm on a Thermomax plate reader (Molecular Devices, Sunnyvale, Calif.) for 2 minutes. The initial velocities of substrate cleavage (mOD/min), for each range of inhibitor concentrations, were fitted to a four parameter equation using Softmax data analysis software. The parameter C, derived from the resulting curve-fit, corresponded to the concentration for half maximal inhibition (IC50).

T1 sequence (P00742 235-488 limits assumed): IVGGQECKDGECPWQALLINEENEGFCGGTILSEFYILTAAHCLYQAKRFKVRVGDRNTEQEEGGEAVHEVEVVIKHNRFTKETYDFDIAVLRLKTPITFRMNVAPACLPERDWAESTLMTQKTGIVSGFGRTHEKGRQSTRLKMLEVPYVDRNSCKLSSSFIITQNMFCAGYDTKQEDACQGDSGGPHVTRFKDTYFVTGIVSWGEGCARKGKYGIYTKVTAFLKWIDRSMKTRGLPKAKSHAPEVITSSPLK
T1 sequence (P00742 41-179 partner limits assumed): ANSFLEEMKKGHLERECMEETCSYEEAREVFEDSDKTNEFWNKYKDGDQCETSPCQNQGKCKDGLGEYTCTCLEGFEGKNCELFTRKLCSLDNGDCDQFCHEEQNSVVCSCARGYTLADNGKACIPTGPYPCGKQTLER

Take `O=C(NCc1cn(-c2ccc(-n3ccccc3=O)cc2OCCN2CCOCC2)nn1)c1ccc(Cl)s1` [Compound 90, 5-Chloro-N-((1-(2-(2-morpholinoethoxy)-4-(2-oxopyridin-1(2H)-yl)phenyl)-1H-1,2,3-triazol-4-yl)methyl)thiophene-2-carboxamide]: the concentration for half-maximal inhibition (IC50) (as a rule, the concentration at which inhibition is half-maximal) was at most 100 nM.
As to `O=C(NCc1cn(-c2ccc(-n3ccccc3=O)cc2OCCc2ccncc2)nn1)c1ccc(Cl)s1` [Compound 91, 5-Chloro-N-((1-(4-(2-oxopyridin-1(2H)-yl)-2-(2-(pyridin-4-yl)ethoxy)phenyl)-1H-1,2,3-triazol-4-yl)methyl)thiophene-2-carboxamide], the IC50 was at most 100 nM.
In the case of `CN(C)CCCOc1cc(-n2ccccc2=O)ccc1-n1cc(CNC(=O)c2ccc(Cl)s2)nn1` [Compound 92, 5-Chloro-N-((1-(2-(3-(dimethylamino)propoxy)-4-(2-oxopyridin-1(2H)-yl)phenyl)-1H-1,2,3-triazol-4-yl)methyl)thiophene-2-carboxamide], the concentration for half-maximal inhibition (IC50) was at most 100 nM.
`O=C(NCc1cn(-c2ccc(-n3ccccc3=O)cc2OCCCN2CCCC2)nn1)c1ccc(Cl)s1` [Compound 93, 5-Chloro-N-((1-(4-(2-oxopyridin-1(2H)-yl)-2-(3-(pyrrolidin-1-yl)propoxy)phenyl)-1H-1,2,3-triazol-4-yl)methyl)thiophene-2-carboxamide] gave an IC50 of at most 100 nM.
In the case of `O=C(NCc1cn(-c2ccc(-n3ccccc3=O)cc2OCCCN2CCCCC2)nn1)c1ccc(Cl)s1` [Compound 94, 5-Chloro-N-((1-(4-(2-oxopyridin-1(2H)-yl)-2-(3-(piperidin-1-yl)propoxy)phenyl)-1H-1,2,3-triazol-4-yl)methyl)thiophene-2-carboxamide], the IC50 was at most 100 nM.
For `O=C(NCc1cn(-c2ccc(-n3ccccc3=O)cc2OCCCN2CCOCC2)nn1)c1ccc(Cl)s1` [Compound 95, 5-Chloro-N-((1-(2-(3-morpholinopropoxy)-4-(2-oxopyridin-1(2H)-yl)phenyl)-1H-1,2,3-triazol-4-yl)methyl)thiophene-2-carboxamide], the IC50 is at most 100 nM.
In the case of `O=C(O)COc1cc(-n2ccccc2=O)ccc1-n1cc(CNC(=O)c2ccc(Cl)s2)nn1` [Compound 96, 2-(2-(4-((2-Chlorothiophene-5-carboxamido)methyl)-1H-1,2,3-triazol-1-yl)-5-(2-oxopyridin-1(2H)-yl)phenoxy)acetic acid] it was 100 to 500 nM; in that of `O=C(NCc1cn(-c2ccc(-n3ccccc3=O)cc2OCc2nnn[nH]2)nn1)c1ccc(Cl)s1` [Compound 98, N-((1-(2-((1H-Tetrazol-5-yl)methoxy)-4-(2-oxopyridin-1(2H)-yl)phenyl)-1H-1,2,3-triazol-4-yl)methyl)-5-chlorothiophene-2-carboxamide], at most 100 nM.
In the case of `O=C(NCc1cn(-c2ccc(-n3ccccc3=O)cc2OC(F)(F)F)nn1)c1ccc(Cl)s1` [Compound 99, 5-Chloro-N-((1-(4-(2-oxopyridin-1(2H)-yl)-2-(trifluoromethoxy)phenyl)-1H-1,2,3-triazol-4-yl)methyl)thiophene-2-carboxamide] it was at most 100 nM.
The figure for `O=C(NCc1cn(-c2ccc(-n3ccccc3=O)cc2C(=O)O)nn1)c1ccc(Cl)s1` [Compound 100, 2-(4-((2-Chlorothiophcne-5-carboxamido)methyl)-1H-1,2,3-triazol-1-yl)-5-(2-oxopyridin-1(2H)-yl)benzoic acid] is 100 to 500 nM; for `NC(=O)c1cc(-n2ccccc2=O)ccc1-n1cc(CNC(=O)c2ccc(Cl)s2)nn1` [Compound 101, N-((1-(2-Carbamoyl-4-(2-oxopyridin-1(2H)-yl)phenyl)-1H-1,2,3-triazol-4-yl)methyl)-5-chlorothiophene-2-carboxamide] it is at most 100 nM.
Regarding `CNC(=O)c1cc(-n2ccccc2=O)ccc1-n1cc(CNC(=O)c2ccc(Cl)s2)nn1` [Compound 102, 5-Chloro-N-((1-(2-(methylcarbamoyl)-4-(2-oxopyridin-1(2H)-yl)phenyl)-1H-1,2,3-triazol-4-yl)methyl)thiophenc-2-carboxamide], the IC50 was at most 100 nM.
The figure for `CN(C)C(=O)c1cc(-n2ccccc2=O)ccc1-n1cc(CNC(=O)c2ccc(Cl)s2)nn1` [Compound 103, 5-Chloro-N-((1-(2-(dimethylcarbamoyl)-4-(2-oxopyridin-1(2H)-yl)phenyl)-1H-1,2,3-triazol-4-yl)methyl)thiophene-2-carboxamide] is at most 100 nM; for `O=C(NCc1cn(-c2ccc(-n3ccccc3=O)cc2C(=O)NCCO)nn1)c1ccc(Cl)s1` [Compound 104, N-((1-(2-((2-Hydroxyethyl)carbamoyl)-4-(2-oxopyridin-1(2H)-yl)phenyl)-1H-1,2,3-triazol-4-yl)methyl)-5-chlorothiophene-2-carboxamide] it is 100 to 500 nM.
With `O=C(NCc1cn(-c2ccc(-n3ccccc3=O)cc2C(=O)NCCCO)nn1)c1ccc(Cl)s1` [Compound 105, N-((1-(2-((3-Hydroxypropyl)carbamoyl)-4-(2-oxopyridin-1(2H)-yl)phenyl)-1H-1,2,3-triazol-4-yl)methyl)-5-chlorothiophene-2-carboxamide], the IC50 lay in the range of 100 to 500 nM.
As for `COCCNC(=O)c1cc(-n2ccccc2=O)ccc1-n1cc(CNC(=O)c2ccc(Cl)s2)nn1` [Compound 106, N-((1-(2-((2-Methoxyethyl)carbamoyl)-4-(2-oxopyridin-1(2H)-yl)phenyl)-1H-1,2,3-triazol-4-yl)methyl)-5-chlorothiophene-2-carboxamide], the IC50 lay within 100 to 500 nM.
The figure for `NCCNC(=O)c1cc(-n2ccccc2=O)ccc1-n1cc(CNC(=O)c2ccc(Cl)s2)nn1` [Compound 107, N-((1-(2-((2-Aminoethyl)carbamoyl)-4-(2-oxopyridin-1(2H)-yl)phenyl)-1H-1,2,3-triazol-4-yl)methyl)-5-chlorothiophene-2-carboxamide] is 100 to 500 nM; for `NC(=O)CNC(=O)c1cc(-n2ccccc2=O)ccc1-n1cc(CNC(=O)c2ccc(Cl)s2)nn1` [Compound 108, N-((1-(2-((2-Amino-2-oxoethyl)carbamoyl)-4-(2-oxopyridin-1(2H)-yl)phenyl)-1H-1,2,3-triazol-4-yl)methyl)-5-chlorothiophene-2-carboxamide] it is 100 to 500 nM.
The figure for `CN(C)CCNC(=O)c1cc(-n2ccccc2=O)ccc1-n1cc(CNC(=O)c2ccc(Cl)s2)nn1` [Compound 109, N-((1-(2-((2-(Dimethylamino)ethyl)carbamoyl)-4-(2-oxopyridin-1(2H)-yl)phenyl)-1H-1,2,3-triazol-4-yl)methyl)-5-chlorothiophene-2-carboxamide] is at most 100 nM; for `CNCCN(C)C(=O)c1cc(-n2ccccc2=O)ccc1-n1cc(CNC(=O)c2ccc(Cl)s2)nn1` [Compound 110, 5-Chloro-N-((1-(2-(methyl(2-(methylamino)ethyl)carbamoyl)-4-(2-oxopyridin-1(2H)-yl)phenyl)-1H-1,2,3-triazol-4-yl)methyl)thiophene-2-carboxamide] it is 100 to 500 nM.
`CN(C)CCN(C)C(=O)c1cc(-n2ccccc2=O)ccc1-n1cc(CNC(=O)c2ccc(Cl)s2)nn1` [Compound 111, 5-Chloro-N-((1-(2-((2-(dimethylamino)ethyl)(methyl)carbamoyl)-4-(2-oxopyridin-1(2H)-yl)phenyl)-1H-1,2,3-triazol-4-yl)methyl)thiophene-2-carboxamide] gave an IC50 of 100 to 500 nM.
The figure for `NCCCNC(=O)c1cc(-n2ccccc2=O)ccc1-n1cc(CNC(=O)c2ccc(Cl)s2)nn1` [Compound 112, N-((1-(2-(3-aminopropylcarbamoyl)-4-(2-oxopyridin-1(2H)-yl)phenyl)-1H-1,2,3-triazol-4-yl)methyl)-5-chlorothiophene-2-carboxamide] is 100 to 500 nM.
Turning to `O=C(NCc1cn(-c2ccc(-n3ccccc3=O)cc2C(=O)N2CCNCC2)nn1)c1ccc(Cl)s1` [Compound 113, 5-Chloro-N-((1-(4-(2-oxopyridin-1(2H)-yl)-2-(piperazine-1-carbonyl)phenyl)-1H-1,2,3-triazol-4-yl)methyl)thiophene-2-carboxamide], the IC50 lay within 100 to 500 nM.
The figure for `O=C1CN(C(=O)c2cc(-n3ccccc3=O)ccc2-n2cc(CNC(=O)c3ccc(Cl)s3)nn2)CCN1` [Compound 114, 5-Chloro-N-((1-(2-(2-oxopiperazine-4-carbonyl)-4-(2-oxopyridin-1(2H)-yl)phenyl)-1H-1,2,3-triazol-4-yl)methyl)thiophene-2-carboxamide] is at most 100 nM.
The figure for `O=C(NCc1cn(-c2ccc(-n3ccccc3=O)cc2C(=O)N2CCC(O)CC2)nn1)c1ccc(Cl)s1` [Compound 115, 5-Chloro-N-((1-(2-(4-hydroxypiperidine-1-carbonyl)-4-(2-oxopyridin-1(2H)-yl)phenyl)-1H-1,2,3-triazol-4-yl)methyl)thiophene-2-carboxamide] is 100 to 500 nM.
